{"source": "patent US20030181510A1", "about": "“Inhibition of muscle regeneration following myectomy” (priority 2002, published 2003)", "key": {"[1]": {"system": "mouse primary satellite cells", "assay": "Fusion of mouse primary satellite cells to myofibers in culture (fusion index)", "format": "cell-based", "conditions": "genistein in culture medium, added on first, second or third day of culture; control 0.05% DMSO; day 3 P<0.002, day 5 P<0.0001 (Student's t-test); FIG. 1", "experimental": "Method: Thigh muscle tissue was removed from post-natal day 20-30 mouse pups and the tissue reduced to single cells by a method based largely on a protocol by DiMario and Strohman (DiMario, J. and Strohman, R. C.; 1988). Gastrocnemius and soleus muscles were dissected free of surrounding tissue and finely minced with scissors. The minced tissue was mixed with 0.10% crude collagenase and incubated at 37° C. for 30 minutes with occasional trituration through the bore of a 5 ml glass pipette to break up tissue pieces. The collagenase-tissue slurry was centrifuged briefly to pellet the tissue pieces, muscle fibers, and cells. […] The number of cells was determined and aliquots were appropriately diluted with culture medium so that a known number of satellite cells (80,000) could be added to additional 35 mm collagen-coated dishes for analysis of cell proliferation and fusion. […]\nFusion of satellite cells to form muscle fibers is generally accomplished by removing the source of growth factors in the culture medium. […] As fusion of satellite cells to form myofibers began, the number of nuclei contained within mononucleated cells, primarily satellite cells, and those within myofibers were counted differentially at a magnification of 200×. […]"}, "[2]": {"conditions": "populations of Southeast Asians consuming 70 mg/day of genistein; cited from earlier work"}, "[3]": {"system": "satellite cells derived from mouse gastrocnemius and soleus muscles", "assay": "Satellite cell proliferation in secondary satellite cell cultures (cell count per ocular grid)", "format": "cell-based", "conditions": "genistein added to culture medium as in Example 1, on day 1 or day 2; control 0.05% DMSO; P<0.0001 one day after, P<0.00001 at days 2-5 after addition; FIG. 2", "description": "Method: To analyze satellite cell proliferation secondary satellite cell cultures derived from mouse gastrocnemius and soleus muscles prepared as in Example 1 were fed fresh medium every day. This generally accepted procedure prolongs proliferation and inhibits differentiation and fusion. Two experimental groups were formed by adding genistein to the culture medium, as in Example 1. […] Living cultures were placed on the stage of a phase-contrast microscope and the number of cells contained within an ocular grid was counted at 100× to 200× total magnification. This cell-counting procedure was performed daily through the sixth day of culture."}}}
{"smiles": "O=c1c(-c2ccc(O)cc2)coc2cc(O)cc(O)c12", "note": "[genistein, 5,7-dihydroxy-3-(4-hydroxyphenyl)-4H-1-benzopyran-4-one]", "values": [{"measurement": "fusion of satellite cells (fusion index vs control cultures)", "setting": "[1]", "value": "inhibited the fusion of satellite cells"}, {"measurement": "ill effects on dietary consumption", "setting": "[2]", "value": "without obvious ill effects"}, {"measurement": "division of satellite cells (number of cells per reticle-grid vs control cultures)", "setting": "[3]", "value": "eliminated the division of satellite cells"}]}
